# Legend:
# [1] = tested on: Hedgehog signaling (Gli-Luc reporter); assay: Hh Gli-Luciferase reporter assay in Shh-Light2 cells; type: cell-based, mouse; conditions: for EC50: Mus musculus, Shh Light2, Table 9B, read-out: Shh Light2 Luc EC50
# Procedure: For Hh signaling assays, Shh-Light2 cells stably transfected with Gli-Luciferase reporter construct were used along with Shh-conditioned media, as previously described^7. Alternatively, 3 μM purmorphamine or 20 nM Smoothened agonist (SAG) (Santa Cruz Biotechnology, Santa Cruz, Calif.) was used to induce Hh signaling. Reporter cells were seeded in 96-well plates and incubated overnight with the various concentrations of eggmanone and Shh-conditioned media. To assess the effects of overexpression of Gli-2, PDE4D3 and DN-PDE4D3 on Hh signaling, mammalian expression vectors containing these constructs were transfected into Shh-Light2 cells in 96-well plates using Fugene6 (Roche), according to manufacturer's instructions. The transfected or Shh-stimulated cells were incubated overnight with the various concentrations of compound. The cells were then lysed, and cell extracts were subjected to Steady-Glo luciferase assay (Promega) according to manufacturer's instructions. The results were normalized to cell titer, as determined using Cell Titer-Glo luminescence assay (Promega).
# zebrafish embryos = assay: Zebrafish embryo phenotypic assay (ZF); type: in vivo; conditions: wild-type embryonic zebrafish, dosed 5 hpf
# Procedure: All zebrafish experiments were approved by Vanderbilt University Institutional Animal Care and Use Committee. Wild-type zebrafish of AB strain were maintained using standard protocols. Chemical screen for small molecules was performed as previously described. Briefly, pairs of zebrafish were mated, and fertilized eggs were arrayed in 96-well microtiter plates (5 embryos/well) containing 250 μl E3 water. At ˜4-hpf, small molecule library from Vanderbilt High Throughput Screening Facility was added to each well to the final concentration of 5 μM. Embryos were incubated at 28.5° C. until 24 and 48-hpf, when they were examined for gross morphologic changes indicative of disruption in embryonic patterning. A total of ˜30,000 compounds were screened.
# ZF refers to wild-type embryonic zebrafish phenotypic assay involving dosing n=˜10 embryos in E3 egg water with compound from either a stock of 1 mM or 10 mM in DMSO at 5 hours post-fertilization and observing at 24, 48, and 72 hours post-fertilization.
# Gli1 mRNA = assay: Hh % Inh.: SAG-induced Gli1 expression in C3H10T½ cells (qPCR); type: cell-based; conditions: Mus musculus, C3H 10T1/2, SAG-induced (100 nM), 24 hours; for inhibition at 1 µM: 1 pM [sic], read-out: C3H10T1/2 qPCR, Gh1 mRNA % Inh., 1 pM; for inhibition at 10 µM: 10 pM [sic], read-out: C3H10T1/2 qPCR, Gh1 mRNA % Inh., 10 pM
# Procedure: Compounds are dosed from 10 mM DMSO stock solutions, and mRNA is isolated after 24 hours of compound treatment. mRNA is reverse transcribed to produce cDNA which is quantified by quantitative polymerase chain reaction (qPCR) in triplicate and levels are normalized to GAPDH levels. Data is presented as percent inhibition compared to positive control (SAG).
# [2] = tested on: Hedgehog signaling (TM3-Gli-Luc); assay: TM3-Gli-Luc luciferase reporter assay stimulated with 20 nM SAG; type: cell-based; conditions: Table 9A; read-out: TM3 G8 Luciferase EC 50
# Procedure: TM3-Gli-Luc cells were maintained on sterile 0.1% gelatin (from porcine skin, Type A, prepared in MilliQ water, autoclaved, then sterile-filtered) in 1:1 Dulbecco's Modified Eagle Medium (DMEM)/F12 supplemented with 5% horse serum, 2.5% fetal bovine serum (FBS), and 15 mM HEPES, hereafter referred to as TM3 Culture Medium. For small molecule evaluation, TM3-Gli-Luc cells were assayed on 0.1% gelatin in DMEM/F12 supplemented with 2.5% FBS and 15 mM HEPES, hereafter referred to as TM3Luc Medium. Sufu^−/− cells were maintained in DMEM supplemented with 4.5 g/L D-glucose, L-glutamine, 25 mM HEPES, and 10% FBS, hereafter referred to as D10 FBS. For small molecule evaluation, Sufu^−/− cells were assayed in DMEM supplemented with 4.5 g/L D-glucose, L-glutamine, 25 mM HEPES, and 0.5% FBS, hereafter referred to as D0.5 FBS. All cells were cultured at 37° C. with a 5% CO2 atmosphere.
# On the day of cell plating, 96-well plates were coated with 50 μL/well of sterile 0.1% gelatin for 5 minutes then aspirated and replaced with 50 μL/well of TM3 Culture Medium. TM3-Gli-Luc cells were seeded at a density of 5,000 cells/well in TM3 Culture Medium and incubated for 24 hours. A master mix of 20 nM SAG in TM3Luc Medium was prepared, and small molecule solutions were prepared by adding the desired amount of compound from 10 mM DMSO stock to TM3Luc Medium containing 20 nM SAG. Negative control was prepared by adding an equi-volume amount of DMSO as compared to small molecule treated conditions to TM3Luc Medium not containing SAG. Cell plating medium was aspirated and replaced with 100 μL/well of prepared small molecule-containing media, and plates were incubated for 48 hours before proceeding to luciferase activity and cell viability reading.
# TM3Luc Medium from compound treated plates was aspirated and replaced with 82 μL/well of Glo Lysis Buffer (Promega, Madison, Wis., USA), and plates were shaken at 300 rpm and room temperature for 12 minutes. Lysate was split between two white 96-well plates, 45 μL/well and 25 μL/well for luciferase reading and cell viability respectively. For luciferase activity monitoring, 45 μL/well of Steady Glo (Promega, Madison, Wis., USA) was added to 45 μL/well of cell lysate, incubated at room temperature for 5 minutes, then luminescence was measured on a Turner Biosystems Modulus Microplate Reader (Sunnyvale, Calif., USA) with an integration time of 0.5 seconds. For cell viability measurement, 25 μL/well of Cell Titer Glo (Promega, Madison, Wis., USA) (prepared by 1:10 dilution with Glo Lysis Buffer) was added to 25 μL/well of cell lysate, incubated at room temperature for 5 minutes, then luminescence was measured as above.
# Luciferase activity data (Steady Glo) was divided by corresponding cell viability data (Cell Titer Glo) to arrive at a live cell number-normalized luciferase activity reading. The average of negative control data (DMSO treated) was subtracted from all wells, and percent activity was calculated by dividing all wells by the positive control (SAG treated) average. […] At least two independent assays tested on separate days were averaged to provide EC50±standard error of the mean.
# PDE4D3 = molecular target: T1, PDE4D3 (Homo sapiens, UniProt Q08499); assay: In vitro PDE assay; type: biochemical; conditions: Table 9A
# T1 construct: purchased BPS Biosciences (San Diego, Calif.); kinetic studies by Millipore (St. Louis, Mo.)
# Procedure: In vitro PDE profiling and dose-response assays were performed by BPS Biosciences (San Diego, Calif.). Kinetic Mechanism of inhibition studies were conducted by Millipore (St. Louis, Mo.). In brief, the PDE assay measures fluorescent polarization of FAM-AMP as FAM-cAMP is converted to FAM-AMP by PDE), the binding agent.
# A series of dilutions of the test compound were prepared with 10% DMSO in assay buffer and 5 μl of the dilution was added to a 50 μl reaction so that the final concentration of DMSO is 1% in all of reactions. All of the PDE enzymatic reactions were conducted in duplicate at room temperature for 60 minutes in a 50 μl mixture containing PDE assay buffer (10 mM Tris-HCl, pH7.4, 10 mM MaCl2, 0.05% Tween 20), 100 nM FAM-cAMP, a PDE enzyme and a test compound.
# After the enzymatic reaction, 100 μl of a binding solution (1:100 dilution of the binding agent, which contains the nano beads that recognize FAM-AMP, with the binding agent diluent) was added to each reaction and the reaction was performed at room temperature for 60 minutes. Fluorescence intensity was measured at an excitation of 485 nm and an emission of 528 nm using a Tecan Infinite M1000 microplate reader. Assays done by Millipore were conducted similarly with changes noted below: […]
# T1 sequence (Q08499 1-673 isoform Q08499-2): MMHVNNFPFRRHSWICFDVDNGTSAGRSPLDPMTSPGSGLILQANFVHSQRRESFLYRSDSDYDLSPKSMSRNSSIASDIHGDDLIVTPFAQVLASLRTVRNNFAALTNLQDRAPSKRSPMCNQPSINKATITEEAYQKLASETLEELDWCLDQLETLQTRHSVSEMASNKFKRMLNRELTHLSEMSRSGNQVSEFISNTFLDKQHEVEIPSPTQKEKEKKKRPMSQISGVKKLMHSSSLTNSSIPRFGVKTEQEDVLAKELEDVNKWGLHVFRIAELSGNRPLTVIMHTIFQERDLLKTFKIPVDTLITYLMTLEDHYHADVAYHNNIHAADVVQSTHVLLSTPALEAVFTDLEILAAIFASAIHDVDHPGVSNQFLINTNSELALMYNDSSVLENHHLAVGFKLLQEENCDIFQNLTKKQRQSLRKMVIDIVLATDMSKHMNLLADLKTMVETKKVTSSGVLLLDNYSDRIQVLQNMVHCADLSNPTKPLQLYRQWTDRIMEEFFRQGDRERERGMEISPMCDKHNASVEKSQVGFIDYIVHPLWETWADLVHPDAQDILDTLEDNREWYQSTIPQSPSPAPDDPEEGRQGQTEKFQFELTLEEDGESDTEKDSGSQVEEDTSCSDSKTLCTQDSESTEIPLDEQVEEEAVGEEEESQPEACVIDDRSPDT
EC50 [2],SMILES,ZF Phenotype EC100 (zebrafish embryos),inhibition at 10 µM (Gli1 mRNA),other results
–,C=CCn1c(SCC(=O)c2ccc(-c3ccccc3)cc2)nc2sc3c(c2c1=O)CCCC3 [Formula (20)],–,–,"Hh Inhibition Assay (EC50, μM) ([1]; Table 8): Inactive"
–,C=C(C)Cn1c(SC)nc2sc3c(c2c1=O)CCCC3 [HI272],–,–,EC50 [1]: > 10 µM
–,CCn1c(SCC(=O)c2ccccc2)nc2sc3c(c2c1=O)CCC3 [HI598],–,–,EC50 [1]: > 10 µM
–,C=CCn1c(SCC(=O)c2ccc(C)cc2)nc2sc3c(c2c1=O)CCCC3 [HI612],–,–,EC50 [1]: > 10 µM
–,C=CCn1c(SCC(=O)c2ccc(F)cc2)nc2sc3c(c2c1=O)CCCC3 [HI682],–,–,EC50 [1]: > 10 µM
–,CCn1c(SCC(=O)c2ccccc2)nc2sc(C)c(C)c2c1=O [HI864],–,–,EC50 [1]: > 10 µM
–,C=CCn1c(SCC(=O)O)nc2sc3c(c2c1=O)CCCC3 [HI918],–,–,EC50 [1]: > 10 µM
–,CCn1c(SCC(=O)c2ccc(Br)cc2)nc2sc3c(c2c1=O)CCC3 [HI2863],–,–,EC50 [1]: > 10 µM
1.1 µM,C=C(C)Cn1c(SCC(=O)c2cccs2)nc2sccc2c1=O [JEH-1-054],>50 µM,50.4%,inhibition at 1 µM (Gli1 mRNA): 19.6%
7.06 µM,C=C(C)Cn1c(SCC(=O)c2cccs2)nc2sc3c(c2c1=O)CCNC3 [JEH-1-064],>50 µM,64.1%,–
> 50 µM,C=C(C)Cn1c(SCC(=O)c2cccs2)nc2ccccc2c1=O [JEH-1-146-1],10 µM,68.9%,–
11.2 µM,C=C(C)Cn1c(SCC(=O)c2cccs2)nc2ncccc2c1=O [JEH-1-146-2],>50 µM,28.7%,–
3.79 µM,O=C(CSc1nc2sc3c(c2c(=O)n1C1CC1)CCCC3)c1ccncc1 [JEH-1-163-2],>50 µM,–,–
5.01 µM,Cc1ccc(CSc2nc3sccc3c(=O)n2C2CC2)cc1 [JEH-1-190-3],>50 µM,–,–
3.16 µM,O=C(CSc1nc2sccc2c(=O)n1CC1CC1)c1cccnc1 [JEH-2-022-2],25 µM,–,–
1.11 µM,O=C(CSc1nc2ccsc2c(=O)n1C1CC1)c1cccs1 [JEH-2-069-2],48 µM,–,–
14.1 µM,C=C(C)Cn1c(SCC(=O)c2cccs2)nc2cnccc2c1=O [JEH-2-088],–,24.2%,–

EC50 [2],SMILES,ZF Phenotype EC100 (zebrafish embryos),inhibition at 10 µM (Gli1 mRNA),other results
–,C=C(C)Cn1c(SCC(=O)c2cccs2)nc2sc3c(c2c1=O)CCN(C(=O)c1ccco1)C3 [JEH-2-105],–,54.9%,–
30.2 µM,C=C(C)Cn1c(SCC(=O)c2cccs2)nc2sc3c(c2c1=O)CCOC3 [JEH-2-120-1],–,82.9%,–
–,CC(C)n1c(SCC(=O)c2cccs2)nc2sc3c(c2c1=O)CCCC3 [JEH-3-031],–,101%,inhibition at 1 µM (Gli1 mRNA): 11.7%
–,CC(C)Cn1c(SCC(=O)c2cccs2)nc2sc3c(c2c1=O)CCCC3 [JEH-3-038-2],–,102%,inhibition at 1 µM (Gli1 mRNA): 27.8%
–,CC(C)(O)Cn1c(SCC(=O)c2cccs2)nc2sc3c(c2c1=O)CCCC3 [JEH-3-038-3],–,14.8%,inhibition at 1 µM (Gli1 mRNA): 24.4%
2.96 µM,O=C(CSc1nc2sc3c(c2c(=O)n1CC1CC1)CCCC3)c1cccs1 [JEH-3-039-1],–,81.6%,IC50 (PDE4D3): 1 µM; inhibition at 1 µM (Gli1 mRNA): -3.3%
10.5 µM,C=C(C)Cn1c(SCC(=O)c2cccnc2)nc2sc3c(c2c1=O)CCCC3 [JEH-3-045-3],–,43.6%,–
7.08 µM,O=C(CSc1nc2sc3c(c2c(=O)n1CC1CCC1)CCCC3)c1cccs1 [JEH-3-056-1],1 µM,67.2%,inhibition at 1 µM (Gli1 mRNA): 14.7%
–,CC(C)(C)Cn1c(SCC(=O)c2cccs2)nc2sc3c(c2c1=O)CCCC3 [JEH-3-056-2],–,84.8%,inhibition at 1 µM (Gli1 mRNA): 13.1%
–,O=C(CSc1nc2sc3c(c2c(=O)n1Cc1ccccc1)CCCC3)c1cccs1 [JEH-3-058-2],–,18.3%,–
–,C=C(C)Cn1c(SCC(=O)N2CCCC(C)C2)nc2sc3c(c2c1=O)CCCC3 (stereo not shown) [JEH-3-120-1],–,106%,inhibition at 1 µM (Gli1 mRNA): 28.7%
23.9 µM,C=C(C)Cn1c(SC)nc2sc3c(c2c1=O)CCCC3 [JEH-3-146],–,83.9%,inhibition at 1 µM (Gli1 mRNA): 48.4%
8.55 µM,O=C(CSc1nc2sc3c(c2c(=O)n1C1CC1)CCNC3)c1ccccc1 [KYK-1-57],>50 µM,–,–
3.59 µM,O=C(CSc1nc2sc3c(c2c(=O)n1C1CC1)CCN(C(=O)c1ccco1)C3)c1ccccc1 [KYK-1-75],>50 µM,–,IC50 (PDE4D3): 6.4 µM
5.13 µM,CN1CCc2c(sc3nc(SCC(=O)c4ccccc4)n(C4CC4)c(=O)c23)C1 [KYK-1-76],>50 µM,–,–
4.67 µM,CCCN1CCc2c(sc3nc(SCC(=O)c4ccccc4)n(C4CC4)c(=O)c23)C1 [KYK-1-100],>50 µM,–,–
